Data from patent US10934298B2, “Substituted pyrazolo[1,5-a]pyrimidines for the treatment of medical disorders” (BIAL—BioTech Investments, Inc., priority 2016, dated 2021).

Biological target: T1, glucocerebrosidase (Gcase) (Homo sapiens, UniProt P04062)
T1 construct: micellar solution containing 10 nM GCase and 100 nM saposin C
T1 sequence (P04062 40-536): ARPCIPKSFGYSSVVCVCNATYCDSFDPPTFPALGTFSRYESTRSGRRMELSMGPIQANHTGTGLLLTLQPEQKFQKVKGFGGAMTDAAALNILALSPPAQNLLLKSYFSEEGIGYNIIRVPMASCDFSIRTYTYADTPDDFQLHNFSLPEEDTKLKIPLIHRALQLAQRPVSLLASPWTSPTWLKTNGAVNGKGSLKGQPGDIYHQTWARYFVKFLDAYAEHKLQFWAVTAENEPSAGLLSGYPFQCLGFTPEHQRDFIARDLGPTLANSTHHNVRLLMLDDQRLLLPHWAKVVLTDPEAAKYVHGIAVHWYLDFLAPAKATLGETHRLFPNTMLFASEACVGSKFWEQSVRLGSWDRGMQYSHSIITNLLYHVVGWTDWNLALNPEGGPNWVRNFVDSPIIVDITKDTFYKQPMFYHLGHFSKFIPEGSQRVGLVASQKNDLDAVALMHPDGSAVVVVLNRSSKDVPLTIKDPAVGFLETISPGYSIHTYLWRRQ
Assay: Glucocerebrosidase (Gcase) activation assay with 4-methylumbelliferyl-beta-D-glucopyranoside substrate, saposin C and phosphatidylserine/triton micelles, fluorescence readout
Format: biochemical
In short: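 Test compounds are first screened at 1.0 and 0.1 μM final, then titrated in 8 points (3-fold from 5 μM) against human GCase with saposin C in phosphatidylserine/triton X-100 micelles at pH 4.7. Reactions run 15 min at room temperature, with fluorescence read at 365/440 nm.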

Percent Gcase Activation, 0.1 μM Test Compound	Percent Gcase Activation, 1 μM Test Compound	Compound
* (less than 10% Gcase activation)	+ (less than 30% Gcase activation)	Cc1cc(N2CCN(c3ccccc3)C2=O)nc2c(C(=O)N[C@H](C)C(F)(F)F)cnn12 [III-329]
*** (greater than 20% Gcase activation)	+++ (Gcase activation greater than 60%)	Cc1nc(-c2cc(C)n3ncc(C(=O)N[C@H](C4CC4)C(F)(F)F)c3n2)oc1C [III-331]
*** (greater than 20% Gcase activation)	+++ (Gcase activation greater than 60%)	Cc1oc(C(C)C)nc1-c1cc(C)n2ncc(C(=O)N[C@H](C3CC3)C(F)(F)F)c2n1 [III-332]
*** (greater than 20% Gcase activation)	+++ (Gcase activation greater than 60%)	Cc1nc(-c2cc(C)n3ncc(C(=O)N[C@H](C4CC4)C(F)(F)F)c3n2)c(C)o1 [III-333]
*** (greater than 20% Gcase activation)	+++ (Gcase activation greater than 60%)	Cc1cc(-c2ccc(F)o2)nc2c(C(=O)N[C@H](C)C(F)(F)F)cnn12 [III-334]
*** (greater than 20% Gcase activation)	+++ (Gcase activation greater than 60%)	Cc1cc(-c2ccoc2F)nc2c(C(=O)N[C@H](C)C(F)(F)F)cnn12 [III-335]
*** (greater than 20% Gcase activation)	+++ (Gcase activation greater than 60%)	Cc1cocc1-c1cc(C)n2ncc(C(=O)N[C@H](C)C(F)(F)F)c2n1 [III-336]
*** (greater than 20% Gcase activation)	+++ (Gcase activation greater than 60%)	Cc1cc(-c2ccoc2)nc2c(C(=O)N[C@H](C)C(F)(F)F)cnn12 [III-337]
*** (greater than 20% Gcase activation)	+++ (Gcase activation greater than 60%)	Cc1cc(-c2cc(C)n3ncc(C(=O)N[C@H](C)C(F)(F)F)c3n2)co1 [III-338]
*** (greater than 20% Gcase activation)	+++ (Gcase activation greater than 60%)	Cc1cc(-c2cc(C)n3ncc(C(=O)N[C@@H](C)C(F)(F)F)c3n2)co1 [III-339]
*** (greater than 20% Gcase activation)	+++ (Gcase activation greater than 60%)	Cc1occc1-c1cc(C)n2ncc(C(=O)N[C@H](C)C(F)(F)F)c2n1 [III-340]
*** (greater than 20% Gcase activation)	+++ (Gcase activation greater than 60%)	Cc1cc(-c2cc(C)n3ncc(C(=O)N[C@H](C4CC4)C(F)(F)F)c3n2)no1 [III-341]
*** (greater than 20% Gcase activation)	+++ (Gcase activation greater than 60%)	Cc1conc1-c1cc(C)n2ncc(C(=O)N[C@H](C3CC3)C(F)(F)F)c2n1 [III-342]
*** (greater than 20% Gcase activation)	+++ (Gcase activation greater than 60%)	Cc1cc(-c2cc(C)n3ncc(C(=O)N[C@H](C4CC4)C(F)(F)F)c3n2)on1 [III-343]
*** (greater than 20% Gcase activation)	+++ (Gcase activation greater than 60%)	Cc1cnoc1-c1cc(C)n2ncc(C(=O)N[C@H](C3CC3)C(F)(F)F)c2n1 [III-344]
*** (greater than 20% Gcase activation)	+++ (Gcase activation greater than 60%)	Cc1cc(C#N)c(-c2cc(C)n3ncc(C(=O)N[C@H](C)C(F)(F)F)c3n2)s1 [III-347]
*** (greater than 20% Gcase activation)	+++ (Gcase activation greater than 60%)	Cc1cc(C#N)c(-c2cc(C)n3ncc(C(=O)N[C@@H](C)C(F)(F)F)c3n2)s1 [III-348]
*** (greater than 20% Gcase activation)	+++ (Gcase activation greater than 60%)	Cc1cc(-c2cc(F)ccc2C#N)nc2c(C(=O)N[C@@H](C)C(F)(F)F)cnn12 [III-350]
*** (greater than 20% Gcase activation)	+++ (Gcase activation greater than 60%)	Cc1cc(-c2cnccc2C(F)(F)F)nc2c(C(=O)N[C@H](C3CC3)C(F)(F)F)cnn12 [III-353]
*** (greater than 20% Gcase activation)	+++ (Gcase activation greater than 60%)	Cc1cc(-c2cnccc2C(F)(F)F)nc2c(C(=O)N[C@@H](C3CC3)C(F)(F)F)cnn12 [III-354]
*** (greater than 20% Gcase activation)	+++ (Gcase activation greater than 60%)	Cc1cc(-c2cccnc2C(F)(F)F)nc2c(C(=O)N[C@H](C3CC3)C(F)(F)F)cnn12 [III-355]
*** (greater than 20% Gcase activation)	+++ (Gcase activation greater than 60%)	Cc1cc(-c2cccnc2C(F)(F)F)nc2c(C(=O)N[C@@H](C3CC3)C(F)(F)F)cnn12 [III-356]
*** (greater than 20% Gcase activation)	+++ (Gcase activation greater than 60%)	Cc1cc(-c2ccc(F)cc2)nc2c(C(=O)N[C@@H](C)C(F)(F)F)cnn12 [III-360]
*** (greater than 20% Gcase activation)	+++ (Gcase activation greater than 60%)	Cc1cc(-c2cccc(F)c2)nc2c(C(=O)N[C@H](C)C(F)(F)F)cnn12 [III-361]
*** (greater than 20% Gcase activation)	+++ (Gcase activation greater than 60%)	Cc1cc(-c2cccc(F)c2)nc2c(C(=O)N[C@@H](C)C(F)(F)F)cnn12 [III-362]
*** (greater than 20% Gcase activation)	+++ (Gcase activation greater than 60%)	Cc1cc(-c2cncc(C#N)c2)nc2c(C(=O)N[C@H](C3CC3)C(F)(F)F)cnn12 [III-363]

Compound	Percent Gcase Activation, 0.1 μM Test Compound	Percent Gcase Activation, 1 μM Test Compound
Cc1cc(N2CCN(c3ccccc3)C2=O)nc2c(C(=O)N[C@H](C3CC3)C(F)(F)F)cnn12 [III-330]	** (Gcase activation in the range of 10% up to 20%)	++ (Gcase activation in the range of 30% up to 60%)
Cc1nc(-c2cc(C)n3ncc(C(=O)N[C@H](C)C(F)(F)F)c3n2)oc1C [III-345]	** (Gcase activation in the range of 10% up to 20%)	+++ (Gcase activation greater than 60%)
Cc1cc(-c2cc(C)n3ncc(C(=O)N[C@@H](C)C4CC4)c3n2)sn1 [III-346]	** (Gcase activation in the range of 10% up to 20%)	+++ (Gcase activation greater than 60%)
Cc1cc(-c2cc(F)ccc2C#N)nc2c(C(=O)N[C@H](C)C(F)(F)F)cnn12 [III-349]	*** (greater than 20% Gcase activation)	++ (Gcase activation in the range of 30% up to 60%)
Cc1cc(-c2cc(C#N)ccc2F)nc2c(C(=O)N[C@H](C)C(F)(F)F)cnn12 [III-351]	** (Gcase activation in the range of 10% up to 20%)	+++ (Gcase activation greater than 60%)
Cc1cc(-c2cc(C#N)ccc2F)nc2c(C(=O)N[C@@H](C)C(F)(F)F)cnn12 [III-352]	** (Gcase activation in the range of 10% up to 20%)	+++ (Gcase activation greater than 60%)
Cc1cc(N2CC(C)(C)N(C)C2=O)nc2c(C(=O)N[C@H](C3CC3)C(F)(F)F)cnn12 [III-357]	** (Gcase activation in the range of 10% up to 20%)	+++ (Gcase activation greater than 60%)
Cc1cc(N2CC(C)(C)OC2=O)nc2c(C(=O)N[C@H](C3CC3)C(F)(F)F)cnn12 [III-358]	* (less than 10% Gcase activation)	++ (Gcase activation in the range of 30% up to 60%)
Cc1cc(-c2ccc(F)cc2)nc2c(C(=O)N[C@H](C)C(F)(F)F)cnn12 [III-359]	** (Gcase activation in the range of 10% up to 20%)	+++ (Gcase activation greater than 60%)
Cc1cc(-c2cncc(C#N)c2)nc2c(C(=O)N[C@@H](C3CC3)C(F)(F)F)cnn12 [III-364]	** (Gcase activation in the range of 10% up to 20%)	+++ (Gcase activation greater than 60%)
Cc1cc(-c2cccnc2C#N)nc2c(C(=O)N[C@H](C3CC3)C(F)(F)F)cnn12 [III-365]	** (Gcase activation in the range of 10% up to 20%)	+++ (Gcase activation greater than 60%)
